Source: PubChem BioAssay (NCI)
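These data come from cells grown in 96-well plates and exposed to compound for 48 hours at five concentrations. The concentration for full growth arrest is given as TGI.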

Key:
Test in all cases: DTP human tumour cell line panel, 48 h
U251 CNS = tested on: U251 CNS
OVCAR-4 ovarian = tested on: OVCAR-4 ovarian
PC-3 prostate = tested on: PC-3 prostate
SNB-75 CNS = tested on: SNB-75 CNS
CAKI-1 renal = tested on: CAKI-1 renal
MDA-MB-231 breast = tested on: MDA-MB-231 breast
HCC-2998 colon = tested on: HCC-2998 colon
K-562 leukemia = tested on: K-562 leukemia
SNB-19 CNS = tested on: SNB-19 CNS
OVCAR-3 ovarian = tested on: OVCAR-3 ovarian
TK-10 renal = tested on: TK-10 renal
OVCAR-5 ovarian = tested on: OVCAR-5 ovarian
SR leukemia = tested on: SR leukemia
MOLT-4 leukemia = tested on: MOLT-4 leukemia

SMILES | TGI (U251 CNS) [µM] | TGI (OVCAR-4 ovarian) [µM] | TGI (PC-3 prostate) [µM] | TGI (SNB-75 CNS) [µM] | TGI (CAKI-1 renal) [µM] | TGI (MDA-MB-231 breast) [µM] | TGI (HCC-2998 colon) [µM] | TGI (K-562 leukemia) [µM] | TGI (SNB-19 CNS) [µM] | TGI (OVCAR-3 ovarian) [µM] | TGI (TK-10 renal) [µM] | TGI (OVCAR-5 ovarian) [µM] | TGI (SR leukemia) [µM] | TGI (MOLT-4 leukemia) [µM]
O=C1C2=Cc3ccccc3CCN2c2ccc([N+](=O)[O-])cc21 | > 100 | > 100 | > 100 | > 100 | > 100 | > 100 | > 100 | > 100 | > 100 | > 100 | > 100 | > 100 | > 100 | > 100
Brc1ccc(C2(N3CCCCC3)CCCCC2)s1 | > 100 | > 100 | > 100 |  | > 100 | > 100 | 35.3 | 52.5 | > 100 | > 100 | > 100 | > 100 | 44.3 | 34.2
c1ncc(C23C4C5C6C4C2C6C53)[nH]1 (stereo not given) | > 100 | > 100 | > 100 | > 100 | > 100 | > 100 | > 100 | > 100 | > 100 | > 100 | > 100 | > 100 | > 100 | > 100
CCOC(=O)c1c(C)n(-c2ccc(C)cc2)c2c1cc(O)c1[nH]c3c(c12)CCCC3 | 34.8 | 51.3 | 52.3 | 12.4 | > 100 | 81.7 | 34.1 | 48.8 | 67.5 | 51.1 | 77.8 | > 100 | 11.5 | 22.4
COC(=O)/C=C1/OC(c2ccccc2)=CC1=O | 32.1 | 31.2 | 40.2 | 30.9 | 33.9 | 31.4 | 33.5 | 44.6 | 32 | 39.4 | 37.2 | 36.9 | > 60.8 | 17.3
COc1ccc([N+](=O)[O-])cc1[I+]c1cc([N+](=O)[O-])ccc1OC | 34.2 |  | > 100 |  | > 100 | > 100 | > 100 | > 100 | > 100 | > 100 | > 100 | > 100 | 26.7 | 
COC(=O)[C@H]1[C@H](OC(=O)[C@@H](OC)c2ccccc2)ON2CC[C@@H](OC(=O)c3ccccc3)[C@H]12 | > 100 | > 100 | > 100 | 65.1 | > 100 | > 100 | > 100 | > 100 | > 100 |  | > 100 | > 100 | > 100 | > 100
[N-]=[N+]=NC1=C(N=[N+]=[N-])c2cccc3cccc(c23)C1=O | > 100 | > 100 | > 100 | > 100 | > 100 | > 100 | > 100 | > 100 | > 100 | > 100 | > 100 | > 100 | > 100 | > 100
COc1cc(O)c2c(=O)cc(C3(OC(C)=O)C=CC(OC4OC(CO)C(O)C(O)C4O)C=C3)oc2c1 (stereo not given) | > 100 | > 100 | > 100 | > 100 | > 100 | > 100 | > 100 | > 100 | > 100 | > 100 | > 100 | > 100 | > 100 | > 100
Cc1ccc(NC(=O)c2cc(S(=O)(=O)N3CCNNC3=O)c(S)cc2Cl)cc1 | > 100 | > 100 | > 100 | > 100 | > 100 | > 100 | > 100 | > 100 | > 100 | > 100 | > 100 | > 100 | > 100 | > 100
Cc1ccc2c(c1)C(=O)c1ccc(C)nc1C2=O | > 100 | 83.7 | > 100 | > 100 | > 100 | > 100 | 97.1 | > 100 | 63.6 | > 100 | > 100 | > 100 | > 100 | > 100
O=C(CC(C(=O)c1ccsc1)c1cccs1)c1ccsc1 (stereo not given) | > 100 | > 100 | > 100 | > 100 | > 100 | > 100 | > 100 | > 100 | > 100 |  | > 100 | > 100 | > 100 | > 100
CCCCC[C@H]1CC=CC(=O)O1 | 20.8 | 27.3 | 69.3 |  | 10.4 | 23 | 19.7 | > 100 | 28.2 | 21.9 | 40.4 | 70 | 15.4 | 18.8
ClCc1nc2cc(Cl)ccc2o1 | 9.13 | 3.45 | 19.6 | 24.1 | 3.24 | 10.2 | 5.9 | > 100 | 21.5 | 4.07 | 7.9 | 38.6 | > 37 | > 100
COC(=O)[C@@H](COC(=O)/C=C/c1ccc(OC(C)=O)c(OC(C)=O)c1)NC(=O)/C=C/c1ccc(OC(C)=O)c(OC(C)=O)c1 | > 100 | 57.8 | > 100 | > 100 | 48.1 | 82.4 | 76.4 | > 100 | > 100 | 50 |  | > 100 | > 100 | > 100
CC1C2CC(CC2=O)C1(C)C (stereo not given) | > 100 | > 100 | > 100 | > 100 | > 100 | > 100 | > 100 | > 100 | > 100 | > 100 | > 100 | > 100 | > 100 | > 100
CSC(=S)Nc1cc(C)ccn1 | > 100 | > 100 | > 100 | > 100 | > 100 | 88.8 | > 100 | > 100 | > 100 | > 100 | > 100 | > 100 | > 100 | > 100
